Several values for one entry are separate records, joined by “and”; a condition that tells them apart may be missing. Identical values can stand only once. Toxic doses and inconclusive results are not listed. Residues, ends and D or L forms follow the SMILES beside them.
System: BDF1 mice, P388 leukemia ip, median survival T/C
Test: NCI In Vivo Anticancer Drug Screen. Data for tumor model P388 Leukemia (intraperitoneal) in B6D2F1 (BDF1) mice
Details: endpoint: median survival time, higher = longer survival
Method in brief: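 Antitumour effect was judged in vivo: survival in drug-treated mice, normalised to that of vehicle-dosed controls, gives the reported T/C.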

[1] = dose: 50.0 mg/kg/injection, schedule: Q01DX009 (ip), vehicle: Klucel (hydroxypropylcellulose) (HPC)
[2] = dose: 50.0 mg/kg/injection, schedule: Q04DX003 (ip), vehicle: Klucel (hydroxypropylcellulose) (HPC)
[3] = dose: 100.0 mg/kg/injection, schedule: Q01DX009 (ip), vehicle: saline with Tween-80
[4] = dose: 200.0 mg/kg/injection, schedule: Q01DX009 (ip), vehicle: saline with Tween-80
[5] = dose: 400.0 mg/kg/injection, schedule: Q01DX009 (ip), vehicle: saline with Tween-80
[6] = dose: 100.0 mg/kg/injection, schedule: Q04DX003 (ip), vehicle: saline

SMILES: COC(=O)C(NC(=O)C(NC(=O)C(N)C(C)C)C(C)C)C(C)C (stereo not drawn) (H-Val-Val-Val-OMe; configuration not given here)
- T/C (dose: 50.0 mg/kg/injection, schedule: Q01DX005 (ip), vehicle: saline): 101 % of control
- T/C (dose: 100.0 mg/kg/injection, schedule: Q01DX005 (ip), vehicle: saline): 99 % of control
- T/C (dose: 200.0 mg/kg/injection, schedule: Q01DX005 (ip), vehicle: saline): 92 % of control

SMILES: CC(O)C#CC(C)O (stereo not given)
- T/C (dose: 12.5 mg/kg/injection, schedule: Q01DX009 (ip), vehicle: Klucel (hydroxypropylcellulose) (HPC)): 91 % of control
- T/C (dose: 12.5 mg/kg/injection, schedule: Q04DX003 (ip), vehicle: Klucel (hydroxypropylcellulose) (HPC)): 118 % of control
- T/C (dose: 25.0 mg/kg/injection, schedule: Q01DX009 (ip), vehicle: Klucel (hydroxypropylcellulose) (HPC)): 91 % of control
- T/C (dose: 25.0 mg/kg/injection, schedule: Q04DX003 (ip), vehicle: Klucel (hydroxypropylcellulose) (HPC)): 104 % of control
- T/C [1]: 95 % of control
- T/C [2]: 109 % of control

SMILES: COc1ccc2c(c1)CC[C@@H]1[C@@H]2CC[C@]2(C)/C(=N\O)CC[C@@H]12
- T/C [3]: 104 % of control
- T/C [4]: 109 % of control
- T/C [5]: 90 % of control

SMILES: CC[n+]1ccc(Nc2ccc(NC(=O)c3ccc(C(=O)Nc4ccc(Nc5cc[n+](CC)c(N)n5)cc4)cc3)cc2)nc1N
- T/C (dose: 0.12 mg/kg/injection, schedule: Q01DX009 (ip), vehicle: saline): 150 % of control
- T/C (dose: 0.25 mg/kg/injection, schedule: Q01DX009 (ip), vehicle: saline): 150 % of control
- T/C (dose: 0.25 mg/kg/injection, schedule: Q04DX003 (ip), vehicle: Klucel (hydroxypropylcellulose) (HPC)): 100 % of control
- T/C (dose: 0.5 mg/kg/injection, schedule: Q01DX009 (ip), vehicle: saline): 155 % of control
- T/C (dose: 0.5 mg/kg/injection, schedule: Q04DX003 (ip), vehicle: Klucel (hydroxypropylcellulose) (HPC)): 95 % of control
- T/C (dose: 1.0 mg/kg/injection, schedule: Q04DX003 (ip), vehicle: Klucel (hydroxypropylcellulose) (HPC)): 109 % of control
- T/C (dose: 1.65 mg/kg/injection, schedule: Q01DX009 (ip), vehicle: saline): 160 % of control
- T/C (dose: 2.5 mg/kg/injection, schedule: Q01DX009 (ip), vehicle: saline): 175 % of control and 177 % of control
- T/C (dose: 3.75 mg/kg/injection, schedule: Q01DX009 (ip), vehicle: saline): 170 % of control
- T/C (dose: 5.0 mg/kg/injection, schedule: Q04DX003 (ip), vehicle: saline): 177 % of control
- T/C (dose: 10.0 mg/kg/injection, schedule: Q01DX009 (ip), vehicle: saline): 190 % of control
- T/C (dose: 20.0 mg/kg/injection, schedule: Q01DX009 (ip), vehicle: saline): 300 % of control
- T/C (dose: 30.0 mg/kg/injection, schedule: Q04DX003 (ip), vehicle: saline): 195 % of control
- T/C (dose: 45.0 mg/kg/injection, schedule: Q04DX003 (ip), vehicle: saline): 200 % of control
- T/C (dose: 50.0 mg/kg/injection, schedule: Q04DX003 (ip), vehicle: saline): 200 % of control
- T/C (dose: 65.0 mg/kg/injection, schedule: Q04DX003 (ip), vehicle: saline): 216 % of control
- T/C (dose: 80.0 mg/kg/injection, schedule: Q01DX009 (ip), vehicle: saline): 109 % of control
- T/C [6]: 250 % of control and 263 % of control
- T/C (dose: 150.0 mg/kg/injection, schedule: Q04DX003 (ip), vehicle: saline): 104 % of control
- T/C (dose: 2.5 micrograms/kg/injection, schedule: Q01DX009 (ip), vehicle: saline): 90 % of control
- T/C (dose: 5.0 micrograms/kg/injection, schedule: Q01DX009 (ip), vehicle: saline): 95 % of control
- T/C (dose: 10.0 micrograms/kg/injection, schedule: Q01DX009 (ip), vehicle: saline): 100 % of control

SMILES: Cc1ccc(NC(=O)Oc2ccc(Cl)c(C)c2)c([N+](=O)[O-])c1
- T/C (dose: 12.5 mg/kg/injection, schedule: Q01DX009 (ip), vehicle: saline with Tween-80): 108 % of control
- T/C (dose: 25.0 mg/kg/injection, schedule: Q01DX009 (ip), vehicle: saline with Tween-80): 102 % of control
- T/C (dose: 50.0 mg/kg/injection, schedule: Q01DX009 (ip), vehicle: saline with Tween-80): 117 % of control

SMILES: CN(C)P(=O)(N(C)C)N(C)C (tested in a mixture with another compound)
- T/C [1]: 98 % of control
- T/C (dose: 100.0 mg/kg/injection, schedule: Q01DX009 (ip), vehicle: Klucel (hydroxypropylcellulose) (HPC)): 105 % of control
- T/C (dose: 200.0 mg/kg/injection, schedule: Q01DX009 (ip), vehicle: Klucel (hydroxypropylcellulose) (HPC)): 105 % of control

SMILES: N=N/C(=C\c1c(O)[nH]c2ccccc12)c1ccccc1
- T/C [2]: 100 % of control
- T/C (dose: 100.0 mg/kg/injection, schedule: Q04DX003 (ip), vehicle: Klucel (hydroxypropylcellulose) (HPC)): 108 % of control
- T/C (dose: 200.0 mg/kg/injection, schedule: Q04DX003 (ip), vehicle: Klucel (hydroxypropylcellulose) (HPC)): 108 % of control
- T/C (dose: 400.0 mg/kg/injection, schedule: Q04DX003 (ip), vehicle: Klucel (hydroxypropylcellulose) (HPC)): 90 % of control

SMILES: O=C(Cn1ccc(O)cc1=O)c1cccs1
- T/C [3]: 97 % of control
- T/C [4]: 97 % of control
- T/C [5]: 97 % of control

SMILES: CC1(C#N)CCC2c3ccccc3CCC2C1=O (stereo not given)
- T/C [6]: 100 % of control
- T/C (dose: 200.0 mg/kg/injection, schedule: Q04DX003 (ip), vehicle: saline): 100 % of control
- T/C (dose: 400.0 mg/kg/injection, schedule: Q04DX003 (ip), vehicle: saline): 100 % of control

— PubChem BioAssay AID328 (DTP/NCI, 2004)
